Format in all cases: cell-based, human
The subject of assay [1] is lymphocytes (peripheral immune cells). Briefly: Intracellular thiol expression of thiol-depleted peripheral immune cells (CMFDA flow cytofluorimetry). Conditions: thiol-deficient conditions (1603), 10-20% thiol reduction. How it is done:
Peripheral immune cells from healthy donors (n=9) were isolated from the peripheral blood. The major fraction of the resulting total population of mononuclear cells regularly represents lymphocytes with a relative percentage of approximately 90%, depending on the donor. 10% of the mononuclear cells are represented by monocytes. The mononuclear cells obtained were absorbed in special cell culture media and incubated in a gasifying incubation cabinet at 37° C., a relative humidity of 98% and 5% relative air-CO2 content. […] To test the influence of the combinations used according to the invention on the thiol status of thiol-deficient immune cells, these cells were artificially thiol-depleted. This process was carried out using proven methods by cultivation in thiol-deficient media (RPMI 1603). Comparative cultures using complete media (RPMI) 1640) were used to define the best possible normal value under the culture conditions. […] Primarily non-fluorogenic CMFDA is thereby passively absorbed by the cell. By means of the chlormethyl group, there is a bonding to cytoplasmic thiol groups. […] The median fluorescence intensity of the specimen (10,000 cells) is directly proportional to the concentration of the intracellular thiol groups. […] The data are presented as the ratio of the cellular fluorescence intensity to the respective calibration particles (beads) that were analyzed simultaneously. […]

Assay [2] has as its system T-lymphocytes. Briefly: Activation markers CD69, CD25, CD71 of PHA-stimulated T-lymphocytes (activation index). Conditions: thiol-deficient cells, 1.0 μg/ml phytohemagglutinin, culture time 72 hours; normal = 1.0. The method, then:
In the cultivation experiment described with reference to Example 1, human T-lymphocytes were stimulated with 1.0 μg/ml phytohemagglutinin. In a culture time of 72 hours, specific markers of the cellular activation were quantitatively detected using cytofluorimetery by means of monoclonal antibodies. The influence of the combinations used according to the invention on the activation markers CD69 (early activation antigen), CD25 (intermediate activation antigen) and CD71 (late activation antigen) of T-lymphocytes was measured. […] It can thus be concluded that the normalization of the cellular thiol status achieved by the combined use of α-lipoic acid and the respective effectors of the glutathione metabolism is accompanied by a restitution of cell function.

Assay [3] has as its system peritoneal macrophages. In words: Intracellular thiol expression of peritoneal macrophages from peritoneal dialysis patients. Conditions: time kinetic over 14 days. The method, then:
Peritoneal macrophages were isolated from the effluate of peritoneal dialysis of patients with a high degree of renal insufficiency, absorbed in a cell culture medium and incubated in a gasifying incubation cabinet at 37° C., a relative humidity of 98% and 7.5% relative air-CO2 content. To investigate the influence of the combinations used according to the invention on the thiol status of the peritoneal macrophages, individual fractions were treated with α-lipoic acid, the effectors of the glutathione metabolism ambroxol or the ACE inhibitor enalapril and with the combination of α-lipoic acid/ambroxol or α-lipoic acid/enalapril, while an additional fraction was maintained as an untreated control. The cellular thiol status was determined using the measurement methods described in Example 1. FIG. 4 illustrates the effect of the combination of α-lipoic acid and ambroxol (FIG. 4a) and α-lipoic acid and enalapril (FIG. 4b) in a time kinetic over 14 days […].

Assay [4] has as its system peritoneal macrophages. Briefly: Membrane thiol expression of peritoneal macrophages from peritoneal dialysis patients. Conditions: α-lipoic acid effect disappeared after 4 days of treatment. How it is done: Peritoneal macrophages were isolated from the effluate of peritoneal dialysis of patients with a high degree of renal insufficiency, absorbed in a cell culture medium and incubated in a gasifying incubation cabinet at 37° C., a relative humidity of 98% and 7.5% relative air-CO2 content. To investigate the influence of the combinations used according to the invention on the thiol status of the peritoneal macrophages, individual fractions were treated with α-lipoic acid, the effectors of the glutathione metabolism ambroxol or the ACE inhibitor enalapril and with the combination of α-lipoic acid/ambroxol or α-lipoic acid/enalapril, while an additional fraction was maintained as an untreated control. The cellular thiol status was determined using the measurement methods described in Example 1. […] The membrane expression of thiols was determined on the basis of the median fluorescence intensity (mfi) of the specimen (3000 cells/measurement) after coupling to a chlormethyl-fluorochrome derivative.

Assay [5] has as its system peritoneal macrophages. Briefly: Degree of differentiation and activation of peritoneal macrophages (CD15, CD11c, CD69, CD71 cytofluorimetry). Conditions: Control = 1.0; after 6 days of incubation; α-lipoic acid 50 μM, ambroxol 10 μM, enalapril 5 μM, captopril 10 μM. The method, then: Peritoneal macrophages were isolated from patients during renal replacement therapy using the method described in Example 3 and cultivated in the presence of the combinations of α-lipoic acid and effectors of the glutathione metabolism according to the invention. After 6 days of incubation, the degree of differentiation of the peritoneal macrophages was determined by means of the expression of the cell surface antigens CD15 and CD11c, and the degree of cellular activation was determined using cytofluorimetry by means of the co-expression of the activation antigens CD69 to CD15-positive cells and CD71 to […] cells.

Assay [6] concerns peritoneal macrophages. In words: Stability of membrane-bound thiol expression in peritoneal macrophages in the dialysis model. Conditions: 14 days, high-glucose dialysis solution. How it is done:
The combinations of thiol-restored peritoneal macrophages used according to the invention were extracted from this test system after 6 days and cultivated over a period of 14 days in a dialysis model. For this purpose the peritoneal macrophages were adapted to matrices that were coated with collagen IV and placed in contact with conventional high-glucose dialysis solution 3 times a day for 60 minutes each time. In this case, the model was used for the induction of a combined hyperglycemic/osmotic stress. […] The membrane expression of thiol was determined on the basis of the median fluorescence intensity (mfi) of the specimen (3000 cells/measurement) after coupling to a chlormethyl-fuorochrome derivative. […] Here, too, there is a mono-effect of α-lipoic acid, although it lasts only briefly and after approximately 4 days in the dialysis model is only approximately 50% as effective as the combinations. A similar result is apparent in the curves of the membrane-bound thiol expression illustrated in FIG. 7.

Assay [7] relates to peritoneal macrophages. In words: Degree of differentiation and activation of peritoneal macrophages (CD15, CD11c, CD69, CD71 cytofluorimetry). Conditions: Control = 1.0; after 6 days of incubation; α-lipoic acid 50 μM, ambroxol 10 μM, enalapril 5 μM, captopril 10 μM. The source holds these as a separate data set.

Take `O=C(O)CCCCC1CCSS1` (stereo not drawn) [α-lipoic acid]: the “Effect on the intracellular thiol deficit (in words)” value in assay [1] was “not possible to achieve a complete compensation of the thiol deficit”. Besides, the “Effect on the activation index of T-lymphocytes (CD69, CD25, CD71; in words)” value in assay [2] is listed as “slight improvement of the cellular activation”. Besides, the “Effect on cellular thiol expression of peritoneal macrophages (in words)” value in assay [3] is recorded as “increase of the cellular thiol expression”. The “Effect on membrane-bound thiol expression of peritoneal macrophages (in words)” value in assay [4] is on record as “very clear effect”. Besides, in assay [5], the CD11c expression was determined as 1.21 ± 0.11, the CD15/69 co-expression was 1.09 ± 0.08 and the CD15 expression is recorded as 1.18 ± 0.16. In addition, the “Membrane-bound thiol expression in the dialysis model (in words)” value in assay [6] is on record as “intermediary”. For the same compound, the CD11c/71 co-expression in assay [7] came out at 1.08 ± 0.09.

The record behind these values is patent US20040138311A1, “Medicament containing an effector of the glutathione metabolism together with $g(a)-lipoic acid for treating diabetes mellitus” (priority 2001, published 2004).
